Source: patent publication US20060205826A1, “Method of using carotenoids in the prevention of cognitive decline and for other neuroprotection functions” (priority 2005, published 2006)

Tests used:
Assay type in all cases: in vivo
[1] = tested on: NF-κB; assay: NF-κB activity (TransAm Kit) in retina and hippocampus of diabetic mice; conditions: 15 days post alloxan, lutein treatment before and after diabetes induction
Protocol: Male albino mice were used throughout the study, housed in a environmentally regulated room on a dark-light cycle of 12 hours with free access to food and water. Principles of laboratory animal care (NIH publication no. 85-23, revised 1985) were followed, as well as specific Spanish regulations. Animals were made diabetic with a single subcutaneous injection of 200 mg alloxan/kg body weight (66 mg/ml) in 0.1 M citrate buffer, pH 4.5, at day 0 of the experiment. Control mice were injected with the same volume of vehicle also at day 0 of the experiment. Mice were identified as diabetic on the basis of blood glucose levels (higher than 16 mM at least 4 days after alloxan treatment). Animals were divided into subgroups as required by the experiment (control, control+lutein, diabetic, diabetic+lutein, diabetic+insulin, diabetic+insulin+lutein). […] Insulin treated animals were injected daily with 500 mU/g body weight since day 4 until the end of the experiment. Mice were killed by cervical dislocation on day 14, and hippocampus and retina were removed and homogenized in pre-chilled 0.2 M potassium phosphate buffer, pH 7.0. […] Glycated hemoglobin was determined in blood samples obtained by heart puncture immediately before killing the animals. NF-κB activity was determined with TransAm Kit (Active Motif) that combines an ELISA test with an specific assay for transcription factors. […]

[2] = tested on: GPx activity; assay: GPx activity in eye and hippocampus homogenate of diabetic mice
Protocol: Male albino mice were used throughout the study, housed in a environmentally regulated room on a dark-light cycle of 12 hours with free access to food and water. Principles of laboratory animal care (NIH publication no. 85-23, revised 1985) were followed, as well as specific Spanish regulations. Animals were made diabetic with a single subcutaneous injection of 200 mg alloxan/kg body weight (66 mg/ml) in 0.1 M citrate buffer, pH 4.5, at day 0 of the experiment. Control mice were injected with the same volume of vehicle also at day 0 of the experiment. Mice were identified as diabetic on the basis of blood glucose levels (higher than 16 mM at least 4 days after alloxan treatment). Animals were divided into subgroups as required by the experiment (control, control+lutein, diabetic, diabetic+lutein, diabetic+insulin, diabetic+insulin+lutein). […] Insulin treated animals were injected daily with 500 mU/g body weight since day 4 until the end of the experiment. Mice were killed by cervical dislocation on day 14, and hippocampus and retina were removed and homogenized in pre-chilled 0.2 M potassium phosphate buffer, pH 7.0. These homogenates were used to assay protein, GPx activity and MDA and GSH concentrations. Samples were kept frozen (−80° C.) until biochemical assays were performed. Blood was taken from the tail vein daily to assay blood glucose levels. Glycated hemoglobin was determined in blood samples obtained by heart puncture immediately before killing the animals. GPx activity was assayed as reported by Lawrence et al. (1978) towards hydrogen peroxide. The disappearance of NADPH was followed spectrophotometrically at 340 nm. The reaction mixture consisted of 240 mU/ml of glutathione disulfide reductase, 1 mM GSH, 0.15 mM NADPH in 0.1 M potassium phosphate buffer, pH 7.0, containing 1 mM EDTA and 1 mM sodium azide; 50 μl sample were added to this mixture and allowed to equilibrate at 37° C. for 3 min. reaction was started by the addition of 1.5 mM hydrogen peroxide to adjust the final volume of the assay mixture to 1 ml.

[3] = tested on: GSH; assay: GSH content in hippocampus homogenate of diabetic mice; conditions: lutein 0.2 mg/kg p.o. or insulin 500 mU/g s.c. on days 4-13
Protocol: Male albino mice were used throughout the study, housed in a environmentally regulated room on a dark-light cycle of 12 hours with free access to food and water. Principles of laboratory animal care (NIH publication no. 85-23, revised 1985) were followed, as well as specific Spanish regulations. Animals were made diabetic with a single subcutaneous injection of 200 mg alloxan/kg body weight (66 mg/ml) in 0.1 M citrate buffer, pH 4.5, at day 0 of the experiment. Control mice were injected with the same volume of vehicle also at day 0 of the experiment.
Mice were identified as diabetic on the basis of blood glucose levels (higher than 16 mM at least 4 days after alloxan treatment). Animals were divided into subgroups as required by the experiment (control, control+lutein, diabetic, diabetic+lutein, diabetic+insulin, diabetic+insulin+lutein). Lutein was administered daily at a dose of 0.2 mg/kg p.o since day 4 after alloxan or citrate buffer injection until the end of the experiment. […] Glycated hemoglobin was determined in blood samples obtained by heart puncture immediately before killing the animals.
The GSH content of eye homogenate was quatitated by the method of Reed et al. (Reed et al., 1980). […] These products are quickly separated by HPLC which allows the quantification of nanomolars levels of GSH.

CC1=C[C@H](O)CC(C)(C)[C@H]1/C=C/C(C)=C/C=C/C(C)=C/C=C/C=C(C)/C=C/C=C(C)/C=C/C1=C(C)C[C@@H](O)CC1(C)C [Lutein]
NF-κB expression in hippocampus [1]: decreased | NF-κB expression in retina [1]: decreased | retinal GPx activity ([2]; eye homogenate without lens, lutein 100 mg/kg p.o. or insulin 500 mU/g s.c. on days 4-13): protected | GPx activity in hippocampus homogenate ([2]; lutein 0.2 mg/kg p.o. or insulin 500 mU/g s.c. on days 4-13): restored | GSH content in hippocampus homogenate [3]: restored
